The source of these data is patent publication US20120083522A1, “MODULATION OF INFLAMMATORY RESPONSES BY FACTOR XI” (Isis Pharmaceuitcals, inc., priority 2009, published 2012).

In the oligonucleotide strings, read from the 5' end, every base follows the letter of its sugar. An asterisk marks phosphorothioate; unmarked linkages are phosphodiester. Other units and linkages are bracketed, terminal groups are in braces. A string of capitals states the bases alone. e = 2'-O-(2-methoxyethyl) (MOE); [5mC] = 5-methylcytosine; d = 2'-deoxy (DNA)

In data set [1] the test system is OVA/alum-induced asthma model. In words: OVA-induced asthma model: BAL eosinophil recruitment (Example 13). In kind it is in vivo, BALB/c mice. The note with it: percentage of total cells in BAL, 50 mg/kg s.c. twice a week for 4 weeks. On the procedure:
The effect of antisense oligonucleotide inhibition of Factor XI and its role in ameliorating asthma was evaluated in an OVA/alum-induced asthma model. Administration of ovalbumin to animals is a well known method to induce […] and has been previously described by Henderson et al. (J. Exp. Med., 1996, 184: 1483-1494).
(§1) The mice were divided into four treatment groups of 5 mice each. One group received subcutaneous injections of ISIS 404071 at a dose of 50 mg/kg twice a week for 4 weeks. One group of mice received subcutaneous injections of control oligonucleotide, ISIS 421208, which is a mismatch oligonucleotide sequence of ISIS 404071, at a dose of 50 mg/kg twice a week for 4 weeks. Two groups of mice received subcutaneous injections of PBS twice a week for 4 weeks. One PBS group remained untreated and served as the control group. The second PBS group and both the oligonucleotide treated groups were injected with OVA/alum on days 0 and 14 and nebulized with OVA in PBS on days 24, 25, and 26. The first OVA application served to sensitize the mice against OVA while the second was a challenge application to provoke an asthmatic reaction. Two days following the final dose, the mice were euthanized, bronchial lavage (BAL) was collected and analyses done.
Bronchial asthma, even in its mild form, is characterized by local infiltration and activation of inflammatory and immunoeffector cells, including T lymphocytes, macrophages, eosinophils, and mast cells (Smith D. L. et al., Am. Rev. Respir. Dis. 1993. 148: 523-532). The effect of treatment with ISIS 404071 on bronchoalveolar lavage (BAL) eosinophil recruitment was assessed. BAL cells were stained with hemotoxylin and eosin (H&E). The results are presented in Table 49 as a percentage of total cells in BAL.

The test system of data set [2] is OVA/alum-induced asthma model. In words: OVA-induced asthma model: mucus production (Example 13). In kind it is in vivo, BALB/c mice. The note with it: BALB/c mice, 50 mg/kg s.c. twice a week for 4 weeks, PAS stain of lung sections. On the procedure:
as §1
Lung sections were stained with periodic acid […] (PAS) base stain that stains mucus, which is produced during asthma attacks (Rogers, D. F. Curr. Opin Pharmacol. 2004. 4: 241-250). The number of airways containing mucus as a percentage of the total airways in the lungs was evaluated.

The subject of data set [3] is collagen-induced arthritis model. In words: Arthritis Study B: collagen-induced arthritis, clinical effects (Example 11). Conditions: DBA/1J mice, 20 mg/kg s.c. twice a week for ten weeks, end of study. In kind it is in vivo, DBA/1J mice. On the procedure: The effect of inhibition of Factor XI and its role in fibrin accumulation in the joints leading to joint inflammation and rheumatoid arthritis was evaluated in a murine collagen-induced arthritis (CIA) model. […] Arthritis induced in mice administered collagen can be visually assessed and clinically scored as described by Marty et al. (J Clin Invest, 107:631-640, 2001) where 1 point is given for each swollen digit except the thumb (maximum, 4), 1 point is given for the tarsal or carpal joint, and 1 point is given for the metatarsal or metacarpal joint with a maximum score of […]. Each paw was graded individually, the cumulative clinical arthritic score per mouse reaching a maximum of 22 points
(§2) In a group of 20 DBA/1J mice, 20 mg/kg of ISIS 404071 were injected subcutaneously twice a week for ten weeks. In a second group of 20 DBA/1J mice, 20 mg/kg of ISIS 404057 were injected subcutaneously twice a week for ten weeks. In a third control group of 20 DBA/1J mice, 20 mg/kg of ISIS 421208 were injected subcutaneously twice a week for ten weeks. Two control groups of 20 mice each were injected with PBS twice a week for ten weeks.
Two and a half weeks after the first oligonucleotide dose, type II bovine collagen in complete Freund's adjuvant was injected subcutaneously at the base of the tail in all the experimental groups and one PBS control group. A booster injection containing 100 μg collagen type II in incomplete Freund's adjuvant was injected subcutaneously at the base of the tail at a different injection site on day 21 after the first collagen injection in these groups.
(§3) Mice in all groups were examined daily after day 30 after the first collagen injection for the visual appearance of arthritis in peripheral joints. The results in Table 22 are expressed as percent change compared to the PBS control except for the liver and spleen weight.

The subject of data set [4] is murine Factor XI mRNA. In words: Colitis Study B: Factor XI mRNA in the liver. The note with it: DSS-induced colitis, day 7, 20 mg/kg s.c. twice a week for 3 weeks, percent change compared to the PBS control. In kind it is in vivo, Swiss Webb mice. On the procedure: (§4) In a first group of 8 Swiss Webb mice, 20 mg/kg of ISIS 404071 was injected subcutaneously twice a week for 3 weeks. In a second group of 8 Swiss Webb mice, 20 mg/kg of ISIS 404057 was subcutaneously injected twice a week for 3 weeks. In a third control group of 8 Swiss Webb mice, 20 mg/kg of ISISI 421208 was injected subcutaneously twice a week for 3 weeks. Two control groups of 8 mice each were injected with PBS twice a week for 3 weeks. After the oligonucleotide treatment, 4% DSS in water was administered ad libitum for 6 days to all the experimental groups and one PBS control group.
(§5) Mice in all groups were weighed at day 0 and daily after administration of DSS. Mice were sacrificed at the end of the study on day 7 after DSS was administered, their livers and colons were harvested for RNA analysis, and their body weights and colon lengths were measured.
RT-PCR analysis of Factor XI mRNA was performed. As presented in Table 27 and FIG. 10, antisense oligonucleotides targeting Factor XI achieved statistically significant dose-dependent reduction of murine Factor XI over the PBS control in the liver. All the measurements are normalized to cyclophilin.
All the results in Table 27 are expressed as percent change compared to the PBS control.

Data set [5] can be described thus: Arthritis Study B: liver and spleen weight, ALT, AST. In kind it is in vivo. Conditions: collagen-treated DBA/1J mice, 20 mg/kg s.c. twice a week for ten weeks. On the procedure:
as §2, §3

Data set [6] deals with DSS-induced colitis model. In words: Colitis Study B: body weight and colon length. Format: in vivo, Swiss Webb mice. The note with it: DSS-induced colitis, day 7, 20 mg/kg s.c. twice a week for 3 weeks, percent change compared to the PBS control. On the procedure: as §4, §5
Data set [7] relates to DSS-induced colitis model. In words: Colitis Study E: weight change, colon length, stool analysis. The note with it: Colitis Study E, day 7. Format: in vivo, Swiss Webb mice. On the procedure: (§6) Two groups 8 Swiss Webb mice were dosed with 40 mg/kg of ISIS 404071 injected subcutaneously twice a week for 3 weeks. Two control groups of 8 Swiss Webb mice were dosed with PBS subcutaneously twice a week for 3 weeks. Both the ASO treated groups and one of the control groups were then given 4% DSS in distilled water for 7 days ad libitum. One of the ASO and DSS treated groups was also given intravenous injections of 20 μg of recombinant human Factor XI protein (Haematologic Technologies Inc.) for 7 consecutive days, starting the day before DSS treatment. Mice were sacrificed at the end of the study on day 7 after DSS was administered.
Mice in all groups were weighed at day 0 and at the end of the study. […] Mice were sacrificed at the end of the study on day 7 after DSS was administered and their colon lengths were measured.

Data set [8] deals with bradykinin. In words: Colitis Study E: bradykinin levels in colon. The note with it: Colitis Study E, day 7. In kind it is in vivo, Swiss Webb mice. On the procedure: as §6
The effect of antisense inhibition of Factor XI on kinin levels in the colon was evaluated (Phoenix Pharmaceuticals, Burlingame, Calif.) at the end of the study on day 7 after DSS was administered and the results are presented in Table 40.

Data set [9] deals with IFN-γ, IL-10, IL-12, IL-1β, IL-2, IL-4, IL-5, TNF-α, KC. In words: Colitis Study E: cytokine levels in colon (multiplex ELISA). In kind it is in vivo, Swiss Webb mice. Conditions: Colitis Study E, day 7. On the procedure:
as §6
The cytokine levels of IFN-γ, IL-10, IL-12, IL-1β, IL-2, IL-4, IL-5, TNF-α, and keratinocyte chemoattractant (KC) were measured in the colon of the mice groups at the end of the study on day 7 after DSS was administered. Colons were homogenized on ice in PBS supplemented with protease inhibitors (Sigma, St. Louis, Mo.) and extracted with rotation at 4° C. for 1 hour. After removal of insoluble material by centrifugation, colon homogenates were used for the cytokine analysis by multiplex ELISA (Mouse TH1/TH2 9-Plex Ultra-Sensitive Kit, Meso Scale Discovery, Gaithersburg, Md.) according to the manufacture's protocol. Cytokine levels in colon extracts were normalized to the protein concentration measured by protein assay kit (BioRad, Hercules, Calif.). The levels of pro-inflammatory cytokines, IFN-γ, IL-1β, IL-10, IL-2, IL-5, TNF-α, and KC were elevated by DSS administration, and were decreased by treatment with ISIS 404071.
Background: ELISA stands for enzyme-linked immunosorbent assay.

Data set [10] concerns soluble CD40 ligand (CD40L). In words: Colitis Study E: CD40L plasma levels. In kind it is in vivo, Swiss Webb mice. Conditions: Colitis Study E, day 7. On the procedure:
as §6
Plasma levels of soluble CD40 ligand (CD40L) are known to be elevated in cases of inflammatory bowel disease (Ludwiczek, O. et al., Int. J. Colorectal Disease. 2003. 18: 142-147) and may be considered a marker of intestinal inflammation. The effect of antisense inhibition of Factor XI on CD40L levels in the plasma was evaluated at the end of the study on day 7 after DSS was administered and the results are presented in Table 39. CD40L levels in plasma were measured by commercially available ELISA kits (Bender MedSystems, Vienna, Austria, eBioscience, San Diego, Calif.) according to the manufacture's protocols.

In data set [11] the test system is thrombin-antithrombin (TAT) complexes. In words: Colitis Study E: TAT levels. Format: in vivo, Swiss Webb mice. The note with it: Colitis Study E, day 7. On the procedure: as §6
Mice with dextran sodium sulfate (DSS)-induced colitis have elevated level of thrombin-antithrombin (TAT) complexes in blood (Anthoni, C. et al., J. Exp. Med. 204: 1595-1601, 2007) and is also observed in patients with ulcerative colitis (Kume, K. et al., Intern Med. 2007. 46: 1323-9). The effect of antisense inhibition of Factor XI on TAT levels in the […] was evaluated (Siemens Healthcare Diagnostics, Deerfield, Ill.) at the end of the study on day 7 after DSS was administered and the results are presented in Table 38.

Regarding “TCGGAAGC GACTCTTATATG (eT*e[5mC]*eG*eG*eA*dA*dG*d[5mC]*dG*dA*d[5mC]*dT*d[5mC]*dT*dT*eA*eT*eA*eT*eG) [ISIS 421208, control oligonucleotide for ISIS 404071 with 8 mismatches, 5-10-5 MOE gapmer, reference compound]”, in data set [1], the Eosinophils is reported as 51%. The “Mucus production, % airways containing mucus” value in data set [2] is 49 % airways. For the same substance, in [3], the “% of CIA” value worked out at 81%, the “% of paws affected” value was determined as 45%, the “Average no. of paws affected” value was 1.7 and the “Clinical severity of CIA” value turned out to be 7.75. In addition, the “Liver Factor XI mRNA” value in [4] is recorded as “+25%”. For the same substance, in data set [5], the “Liver ALT” value turned out to be 70.06, the “Liver AST” value came out at 165.12, the “Liver Weight as a % of Body Weight” value amounted to 6.14% and the “Spleen Weight as a % of Body Weight” value was 0.718 % of Body Weight. For the same substance, in data set [6], the Body weight is −10% and the Colon length was −33%.

Take “recombinant Factor XI protein: recombinant human Factor XI protein (Haematologic Technologies Inc.)”: in data set [7], the “colon length (in words)” value was “increase in colon length due to treatment with ISIS 404071 is eliminated” and the “stool softness/diarrhea (in words)” value is “amelioration of diarrhea in mice treated with ISIS 404071 is eliminated”. In addition, the “bradykinin levels (in words)” value in data set [8] is listed as “restoration of bradykinin levels to that of the DSS treated mice”. Also, the “pro-inflammatory cytokine levels in colon: IFN-γ, IL-1β, IL-10, IL-2, IL-5, TNF-α, KC (in words)” value in data set [9] was “restoration of cytokine levels to that of the DSS treated mice”. Moreover, in data set [10], the “CD40L levels in plasma (in words)” value is reported as “restoration of CD40L levels to that of the DSS treated mice”. The “TAT levels (in words)” value in [11] is recorded as “near restoration of TAT levels to that of the DSS treated mice”.
